Tests used:
[1] = test system: leukemias and haemoblastoses; experiment: therapeutic results in leukemias and haemoblastoses (Table VII); type: in vivo, human
Method: In addition, eight patients were added to the group treated on the basis of this schedule. Therapeutic results obtained by F-Leurosine in leukemias and haemoblastoses are listed in Table VII. |Therapeutic Results Obtained by F-Leurosine Treatment

[2] = test system: lymphomas; experiment: effect of F-leurosine on lymphomas in patients (Table II); type: in vivo, human
Source text: Both of Hodgkin patients belonged to the poor risk category.
EFFECT OF F-LEUROSINE ON LYMPHOMAS

[3] = test system: VX-2 rabbit epitheloma; experiment: growth inhibition of VX-2 rabbit epitheloma; type: in vivo
[4] = test system: leukaemias; experiment: effect of F-leurosine on leukaemias in patients (Table I); type: in vivo, human; conditions: for haematological effect: schedule C
[5] = test system: granulocytes, lymphocytes, platelets; experiment: haematological parameters; type: in vivo
[6] = test system: haemoblastoses and leukemia; experiment: clinical treatment of patients with haemoblastoses and leukemia (Example A); type: in vivo, human
Method: Based on the experiences obtained on 17 patients during the first half-year, further 8 patients with haemoblastoses and leukemia were given treatment. The patients were given daily 0.05 mg/kg single doses. The clinical examinations during the second half-year were performed with the same daily dose, but with different total doses. The smallest total amount meant 3, the highest 12 subsequent doses. The dosage was tested both in forms of sequential and intermittent treatment.
3 patients out of 8 received the drug sequentially, which meant single doses on subsequent days, the remaining 5 patients were given intermittent treatment.
The intermittent treatment was made in two ways: 1. Single doses through 3 days, followed by 5 days interval as total up to an amount of 12 times 0.05 mg/kg. 2. Single dose on the first day, followed by 3 days interval, up to a total amount of 12 times 0.05 mg/kg.
The route of administration was always intravenous, 1 mg active substance was dissolved in 10 ml physiological saline.

[7] = test system: Yoshida ascites sarcoma; experiment: antitumor effect on Yoshida ascites sarcoma; type: in vivo
Source text: The treatment extends the life span of animals suffering from L-1210 lymphoid leukemia, s37 ascites sarcoma or Yoshida ascites sarcoma by about 150 to 250 percent.
EFFECT OF F-LEUROSINE ON ASCITIC TUMORS

[8] = 0.05 mg/kg daily dose, applied 3-12 times

`CCC12CN3CCc4c([nH]c5ccccc45)[C@@](C(=O)OC)(c4cc5c(cc4OC)N(C=O)[C@H]4[C@@](O)(C(=O)OC)[C@H](OC(C)=O)[C@]6(CC)C=CCN7CC[C@]54[C@@H]76)C[C@@H](C3)C1O2` (some centres unmarked) [N-formyl-leurosine] gave a Complete remission ([1]; ALL, 1 patient) of 1 patients, a Complete remission ([1]; AML, 1 patient) of 1 patients and a Partial remission ([1]; AMoL, 1 patient) of 1 patients. It also gave a Partial remission ([1]; AUL, 1 patient) of 1 patients, a Partial remission ([1]; CLL, 3 patients) of 3 patients and a No response ([1]; Hodgkin's disease, 2 patients) of 2 patients. The No response ([1]; LSC, 5 patients) was 1 patients, the Partial remission ([1]; LSC, 5 patients) was 4 patients and the No response ([1]; Multiple myelomo, 6 patients) was 2 patients. The Partial remission ([1]; Multiple myelomo, 6 patients) was 4 patients, the No response ([1]; RSC, 2 patients) was 1 patients and the Partial remission ([1]; RSC, 2 patients) was 1 patients. For the same molecule, the Complete remission ([1]; Total, 22 patients) was 2 patients, the No response ([1]; Total, 22 patients) was 6 patients and the Partial remission ([1]; Total, 22 patients) was 14 patients. For the same molecule, the “X-ray picture of the chest, atelectasia in lower region of right lung” value ([2]; Hodgkin patient four, before vs after treatment) was “undoubted improvement”, the response ([2]; lymphosarcoma patient eight, poor risk) was “non-responding” and the palpable lymph nodes ([2]; lymphosarcoma patient five, after second course) was “all but one of the palpable lymph nodes disappeared”. For the same molecule, the “Westergren value after treatment” value ([2]; lymphosarcoma patient five, 75 mm/hour before the treatment) was 12 mm/h, the remission ([2]; lymphosarcoma patient three) was “moderate remission” and the “change in mediastinal pathologic lymph nodes' size and intensity” value ([2]; lymphosarcoma patient two) was “not spectacular, but definite”. The palpable lymph nodes ([2]; lymphosarcoma patient two) was “The majority of their palpable lymph nodes disappeared”, the effect ([2]; patient five, course I, Lysc., schedule A) was “IR>50%” and the effect ([2]; patient five, course II, Lysc., schedule B) was “IR<50%”. For the same molecule, the effect ([2]; patient nine, Hodgkin SC., schedule C) was “IR<50%”, the effect ([2]; patient one, Rsc., schedule C) was “IR<50%” and the effect ([2]; patient three, Lysc., schedule A) was “IR<50%”. For the same molecule, the effect ([2]; patient two, Lysc., schedule C) was “IR>50%”, the sensitivity to treatment ([2]; poor risk Hodgkin patient four) was “proved to be sensitive” and the improvement after therapy ([2]; two reticulosarcoma patients, some lymph nodes diminished, softer, more mobile) was “one showed a moderate improvement after therapy”. The growth inhibition [3] was “remarkable growth inhibition”, the “clinical improvement parallel with the haematological one” value ([4]; ALL and AML patients) was “observed only in the case of the ALL patient” and the “duration of complete haematological remission” value ([4]; ALL patient) was 2 months. The outcome after treatment ([4]; AML patient) was “died one month after the end of the treatment”, the “time to relapse after finishing treatment” value ([4]; AML patient, relapse untreatable because of serious thrombopenia and bleeding) was 14 days and the splenomegaly ([4]; CLL, first case) was “splenomegaly diminished”. For the same molecule, the “enlargement of pathological lymph nodes” value ([4]; CLL, second case (T. B.)) was “became less pronounced”, the “lymph nodes and spleen volume” value ([4]; CLL, third case) was “both the lymph nodes and the spleen increased in volume” and the clinical improvement ([4]; chronic lymphocytic leukaemia) was “some clinical improvement was achieved in all the 3 CLL patients”. The haematological remission ([4]; chronic lymphocytic leukaemia) was “no haematological remission could be induced”, the complete haematological remission ([4]; four cases of acute leukaemia, one ALL, one AML) was “Complete haematological remission was achieved in two cases” and the haematological effect ([4]; patient seven, AMoL) was “IR>50%”. For the same molecule, the haematological effect ([4]; patient six, AUL) was “IR>50%”, the “lowering of number of granulocytes” value ([5]; 0.6 mg/kg) was 50% and the number of lymphocytes ([5]; 15 mg/kg) was “decreased only after administration of 15 mg/kg”. The platelet count ([5]; similar dose level) was “No significant changes”, the side effects [6, 8] was “does not produce any side effects” and the untoward neurological symptoms [6, 8] was “No untoward symptoms of a neurological respect appear”. For the same molecule, the objective improvement ([6]; 0.05 mg/kg daily i.v., complete treatments) was “all complete treatments were followed by objective improvement”, the Complete remission ([6]; 0.05 mg/kg daily i.v., leukemic patients) was “both leukemic patients had complete remission” and the “effectiveness in acute leukemia and lymphomas” value ([6]; phase I examinations, acute leukemia (myeloblast and lymphoblast type) and lymphomas) was “equally effective in acute leukemia (myeloblast and lymphoblast type), and in lymphomas”. The cytostatic effect ([6]; summary) was “very effective cytostatic”, the Survival ([7]; 9 × 0.5 mg/kg i.p. daily) was 143 and the Tumor free ([7]; 9 × 0.5 mg/kg i.p. daily) was 0/6. The Survival ([7]; 9 × 1.0 mg/kg i.p. daily) was 173, the Tumor free ([7]; 9 × 1.0 mg/kg i.p. daily) was 2/6 and the Survival ([7]; 9 × 2.0 mg/kg i.p. daily) was 243. The Tumor free ([7]; 9 × 2.0 mg/kg i.p. daily) was 4/6 and the “extension of life span” value ([7]; Yoshida ascites sarcoma, about) was 150-250%.

From US4279915A, “Method of treatment using new leurosine derivatives” (priority 1973, dated 1981)
